As usually defined, the DC50 is the concentration giving 50% degradation. Lower therefore signals degradation at low concentration.

One assay deals with T1, BTK (Homo sapiens, UniProt Q06187).
T1 construct: High control=Cell group with added DMSO and without compound, indicating microplate readings without BTK degradation; endogenous in cells; host or cells: TMD-8
Briefly: BTK degradation in TMD-8 cells (HTRF assay). The class given is cell-based. The conditions noted are these: 6 h treatment, IC50 (DC50) of BTK degradation. In short, it runs like this: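 BTK remaining after compound treatment was measured by HTRF (337 nm excitation, 665/620 nm emission) in lysates of TMD-8 cells. Cells were exposed for 6 h to eight 6-fold-spaced concentrations in 0.2% DMSO. DC50 values were obtained from a Hill-equation fit (top, bottom, slope) of % inhibition.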
Background: In TR-FRET formats the signal depends on donor and acceptor labels being close together.

The test system of the next assay is HEK-293 cells. Briefly: HEK-293 cytotoxicity detection (CellTiter-Glo). The format is cell-based. The conditions noted are these: HEK-293 cells, 72 h incubation, CellTiter-Glo luminescence, IC50 of cell proliferation inhibition, read-out: HEK293. In short, it runs like this:
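Four-parameter logistic fitting of percent inhibition versus concentration gives IC50. Luminescent ATP read-out (CellTiter-Glo) after 72 h compound treatment of HEK-293 cells, 8 doses in 4-fold steps from a 5 mM 500× DMSO stock, final DMSO 0.2%.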
Background: Cellular ATP, detected with luciferase, serves as a proxy for viable cell number.

Where two headings read alike, the source gives them in different places.

T1 sequence (Q06187 whole entry): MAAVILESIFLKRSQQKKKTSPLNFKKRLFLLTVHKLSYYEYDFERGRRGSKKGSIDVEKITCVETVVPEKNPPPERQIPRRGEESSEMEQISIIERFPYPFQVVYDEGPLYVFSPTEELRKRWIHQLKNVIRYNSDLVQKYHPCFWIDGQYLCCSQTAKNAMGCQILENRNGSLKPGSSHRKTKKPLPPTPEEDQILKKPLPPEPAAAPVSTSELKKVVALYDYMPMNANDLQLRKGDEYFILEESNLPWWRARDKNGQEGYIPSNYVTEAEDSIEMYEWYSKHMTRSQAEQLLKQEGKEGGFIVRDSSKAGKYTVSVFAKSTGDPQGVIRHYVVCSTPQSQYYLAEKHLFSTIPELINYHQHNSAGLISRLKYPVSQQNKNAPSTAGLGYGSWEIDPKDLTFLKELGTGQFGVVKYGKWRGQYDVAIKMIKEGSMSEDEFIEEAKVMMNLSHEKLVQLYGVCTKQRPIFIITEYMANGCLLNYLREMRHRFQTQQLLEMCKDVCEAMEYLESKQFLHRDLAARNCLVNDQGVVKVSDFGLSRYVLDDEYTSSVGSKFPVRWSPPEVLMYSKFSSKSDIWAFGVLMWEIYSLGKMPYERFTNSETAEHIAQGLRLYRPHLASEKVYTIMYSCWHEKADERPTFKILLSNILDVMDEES

For the molecule `Cc1cc(-c2ncnc3[nH]c4cc(C5CCN(CC6CCN(c7ccc(N8CCC(=O)NC8=O)cc7)CC6)CC5)ccc4c23)ccc1CNC(=O)c1nc(C(C)(C)C)no1` [Example 4, 3-(tert-butyl)-N-(4-(7-(1-((1-(4-(2,4-dioxotetrahydropyrimidin-1(2H)-yl)phenyl)piperidin-4-yl)methyl)piperidin-4-yl)-9H-pyrimido[4,5-b]indol-4-yl)-2-methylbenzyl)-1,2,4-oxadiazole-5-carboxamide], half-maximal degradation at BTK (DC50) was put at 0.294 nM. Also, the IC50 in the assay on HEK-293 cells (Homo sapiens) was 3660 nM.

For `Cc1cc(-c2ncnc3[nH]c4c(c23)CCC(N2CCN(CC3CCN(c5ccc(N6CCC(=O)NC6=O)cc5)CC3)CC2)C4)ccc1[C@@H](C)NC(=O)c1nc(C(C)(C)C)no1` (stereo partly drawn) [Example 132, 3-(tert-butyl)-N-((1R)-1-(4-(7-(4-((1-(4-(2,4-dioxotetrahydropyrimidin-1(2H)-yl)phenyl)piperidin-4-yl)methyl)piperazin-1-yl)-6,7,8,9-tetrahydro-5H-pyrimido[4,5-b]indol-4-yl)-2-methylphenyl)ethyl)-1,2,4-oxadiazole-5-carboxamide], the DC50 at BTK is > 2000 nM. The IC50 in the assay on HEK-293 cells (Homo sapiens) is > 10000 nM.

`Cc1cc(-c2ncnc3[nH]c4cc(N5CCN(C6CC(c7ccc([C@H]8CCC(=O)NC8=O)cc7)C6)CC5)ccc4c23)c(F)cc1[C@@H](C)NC(=O)c1nc(C(C)(C)C)no1` (stereo partly drawn) [Example 26, 3-(tert-butyl)-N—((R)-1-(4-(7-(4-(3-(4-((R)-2,6-dioxopiperidin-3-yl)phenyl)cyclobutyl)piperazin-1-yl)-9H-pyrimido[4,5-b]indol-4-yl)-5-fluoro-2-methylphenyl)ethyl)-1,2,4-oxadiazole-5-carboxamide] gave a DC50 at BTK of 2.2 nM. The IC50 in the assay with HEK-293 cells (Homo sapiens) was > 10000 nM.

On to `Cc1cc(CCN2CCN(c3ccc4c(c3)[nH]c3ncnc(-c5ccc([C@@H](C)NC(=O)c6nc(C(C)(C)C)no6)c(C)c5)c34)CC2)ccc1C1CCC(=O)NC1=O` (stereo partly drawn) [Example 18, 3-(tert-butyl)-N-((1R)-1-(4-(7-(4-(4-(2,6-dioxopiperidin-3-yl)-3-methylphenethyl)piperazin-1-yl)-9H-pyrimido[4,5-b]indol-4-yl)-2-methylphenyl)ethyl)-1,2,4-oxadiazole-5-carboxamide], for which the DC50 at BTK stood at 0.607 nM. In addition, the IC50 in the assay with HEK-293 cells (Homo sapiens) was > 10000 nM.

For `Cc1c([C@@H](C)NC(=O)c2noc(C(C)(C)C)n2)ccc(-c2ncnc3[nH]c4cc(N5CCN(C6CN(c7ccc(N8CCC(=O)NC8=O)cc7)C6)CC5)ccc4c23)c1F` [Example 63, (R)-5-(tert-butyl)-N-(1-(4-(7-(4-(1-(4-(2,4-dioxotetrahydropyrimidin-1(2H)-yl)phenyl)azetidin-3-yl)piperazin-1-yl)-9H-pyrimido[4,5-b]indol-4-yl)-3-fluoro-2-methylphenyl)ethyl)-1,2,4-oxadiazole-3-carboxamide], on BTK, it took 6.82 nM to reach half-maximal degradation (DC50). The IC50 with HEK-293 cells (Homo sapiens) is > 10000 nM.

Consider `Cc1cc(-c2ncnc3[nH]c4cc(N5CCN(CC6CCN(c7ccc(N8CCC(=O)NC8=O)cc7)CC6)CC5)c(C)cc4c23)c(F)cc1[C@@H](C)NC(=O)c1noc(C(C)(C)C)n1` [Example 44, (R)-5-(tert-butyl)-N-(1-(4-(7-(4-((1-(4-(2,4-dioxotetrahydropyrimidin-1(2H)-yl)phenyl)piperidin-4-yl)methyl)piperazin-1-yl)-6-methyl-9H-pyrimido[4,5-b]indol-4-yl)-5-fluoro-2-methylphenyl)ethyl)-1,2,4-oxadiazole-3-carboxamide], for which the DC50 on BTK stood at 1.38 nM. Further, in the assay on HEK-293 cells (Homo sapiens), the IC50 is > 10000 nM.

`Cc1c([C@@H](C)NC(=O)c2noc(C(C)(C)C)n2)ccc(-c2ncnc3[nH]c4cc(N5CCN(CCc6cccc7c6n(C)c(=O)n7C6CCC(=O)NC6=O)CC5)ccc4c23)c1F` (stereo partly drawn) [Example 82, 5-(tert-butyl)-N-((1R)-1-(4-(7-(4-(2-(1-(2,6-dioxopiperidin-3-yl)-3-methyl-2-oxo-2,3-dihydro-1H-benzo[d]imidazol-4-yl)ethyl)piperazin-1-yl)-9H-pyrimido[4,5-b]indol-4-yl)-3-fluoro-2-methylphenyl)ethyl)-1,2,4-oxadiazole-3-carboxamide]: the DC50 on BTK was 3.17 nM. Besides, in the assay on HEK-293 cells (Homo sapiens), the IC50 was > 10000 nM.

At BTK, `Cc1cc(-c2ncnc3[nH]c4cc(N5CCN(CC6CCN(c7ccc(N8CCC(=O)NC8=O)c(C)c7)CC6)CC5)ccc4c23)ccc1[C@@H](C)NC(=O)c1noc(C(C)(C)C)n1` [Example 22, (R)-5-(tert-butyl)-N-(1-(4-(7-(4-((1-(4-(2,4-dioxotetrahydropyrimidin-1(2H)-yl)-3-methylphenyl)piperidin-4-yl)methyl)piperazin-1-yl)-9H-pyrimido[4,5-b]indol-4-yl)-2-methylphenyl)ethyl)-1,2,4-oxadiazole-3-carboxamide] showed a DC50 of 0.211 nM. Also, the IC50 in the assay on HEK-293 cells (Homo sapiens) is > 10000 nM.

On BTK, `Cc1cc(-c2ncnc3[nH]c4cc(N5CCN(C6CC(c7ccc([C@H]8CCC(=O)NC8=O)cc7)C6)CC5)ccc4c23)c(F)cc1[C@@H](C)NC(=O)c1nc(C2(C)CC2)no1` (stereo partly drawn) [Example 96, N—((R)-1-(4-(7-(4-(3-(4-((R)-2,6-dioxopiperidin-3-yl)phenyl)cyclobutyl)piperazin-1-yl)-9H-pyrimido[4,5-b]indol-4-yl)-5-fluoro-2-methylphenyl)ethyl)-3-(1-methylcyclopropyl)-1,2,4-oxadiazole-5-carboxamide] had a DC50 of 2.98 nM. Besides, in the assay on HEK-293 cells (Homo sapiens), the IC50 was > 10000 nM.

Consider “5-(tert-butyl)-N—((R)-1-(4-(7-(4-(3-(4-((R)-2,6-dioxopiperidin-3-yl)phenyl)cyclobutyl)piperazin-1-yl)-9H-pyrimido[4,5-b]indol-4-yl)-3-fluoro-2-methylphenyl)ethyl)-1,2,4-oxadiazole-3-carboxamide [Example 32]”, for which, at BTK, it took 9.03 nM to reach half-maximal degradation (DC50). In addition, the IC50 with HEK-293 cells is > 10000 nM.

At BTK, `Cc1c([C@@H](C)NC(=O)c2noc(C(C)(C)C)n2)ccc(-c2ncnc3[nH]c4cc(N5CCN(C6CCN(c7ccc(C8CCC(=O)NC8=O)cc7)CC6)CC5)ccc4c23)c1F` (stereo partly drawn) [Example 29, 5-(tert-butyl)-N-((1R)-1-(4-(7-(4-(1-(4-(2,6-dioxopiperidin-3-yl)phenyl)piperidin-4-yl)piperazin-1-yl)-9H-pyrimido[4,5-b]indol-4-yl)-3-fluoro-2-methylphenyl)ethyl)-1,2,4-oxadiazole-3-carboxamide] came in with a DC50 of 3.16 nM. Also, the IC50 in the assay on HEK-293 cells (Homo sapiens) was > 10000 nM.

In turn, `Cc1cc(-c2ncnc3[nH]c4cc(N5CCN(CC6CCN(c7ccc(N8CCC(=O)NC8=O)c(C)c7)CC6)CC5)ccc4c23)ccc1[C@@H](C)NC(=O)c1nc(C(C)(C)C)no1` [Example 8, (R)-3-(tert-butyl)-N-(1-(4-(7-(4-((1-(4-(2,4-dioxotetrahydropyrimidin-1(2H)-yl)-3-methylphenyl)piperidin-4-yl)methyl)piperazin-1-yl)-9H-pyrimido[4,5-b]indol-4-yl)-2-methylphenyl)ethyl)-1,2,4-oxadiazole-5-carboxamide] displayed a DC50 on BTK of 0.481 nM. For the same molecule, in the assay with HEK-293 cells (Homo sapiens), the IC50 was > 10000 nM.

On BTK, `COc1cc2c(cc1N1CCN(CC3CCN(c4ccc(N5CCC(=O)NC5=O)cc4)CC3)CC1)[nH]c1ncnc(-c3ccc([C@@H](C)NC(=O)c4nc(C5(C)CC5)no4)c(C)c3)c12` [Example 52, (R)—N-(1-(4-(7-(4-((1-(4-(2,4-dioxotetrahydropyrimidin-1(2H)-yl)phenyl)piperidin-4-yl)methyl)piperazin-1-yl)-6-methoxy-9H-pyrimido[4,5-b]indol-4-yl)-2-methylphenyl)ethyl)-3-(1-methylcyclopropyl)-1,2,4-oxadiazole-5-carboxamide] came in with a DC50 of 0.361 nM. Also, in the assay on HEK-293 cells (Homo sapiens), the IC50 was > 10000 nM.

At BTK, `Cc1cc(-c2ncnc3[nH]c4cc(N5CCC6(CC5)CCN(C5CC(c7ccc(N[C@H]8CCC(=O)NC8=O)cc7)C5)CC6)ccc4c23)ccc1[C@@H](C)NC(=O)c1nc(C(C)(C)C)no1` (stereo partly drawn) [Example 108, 3-(tert-butyl)-N-((1R)-1-(4-(7-(9-((1s,3s)-3-(4-((2,6-dioxopiperidin-3-yl)amino)phenyl)cyclobutyl)-3,9-diazaspiro[5.5]undecan-3-yl)-9H-pyrimido[4,5-b]indol-4-yl)-2-methylphenyl)ethyl)-1,2,4-oxadiazole-5-carboxamide] registered a DC50 of 2.64 nM. Also, the IC50 in the assay on HEK-293 cells was 949 nM.

Molecule `COc1cc2c(cc1N1CCN(CC3CC(c4ccc(C5CCC(=O)NC5=O)cc4)C3)CC1)[nH]c1ncnc(-c3ccc([C@@H](C)NC(=O)c4nc(C(C)(C)C)no4)c(C)c3)c12` (stereo partly drawn) [Example 47, 3-(tert-butyl)-N-((1R)-1-(4-(7-(4-((3-(4-(2,6-dioxopiperidin-3-yl)phenyl)cyclobutyl)methyl)piperazin-1-yl)-6-methoxy-9H-pyrimido[4,5-b]indol-4-yl)-2-methylphenyl)ethyl)-1,2,4-oxadiazole-5-carboxamide] yielded a DC50 on BTK of 1.7 nM. Further, in the assay on HEK-293 cells (Homo sapiens), the IC50 is > 10000 nM.

For `COc1cc2c(cc1N1CCN(Cc3ccc4c(c3)n(C)c(=O)n4C3CCC(=O)NC3=O)CC1)[nH]c1ncnc(-c3ccc([C@@H](C)NC(=O)c4nc(C(C)(C)C)no4)c(C)c3F)c12` (stereo partly drawn) [Example 71, 3-(tert-butyl)-N-((1R)-1-(4-(7-(4-((1-(2,6-dioxopiperidin-3-yl)-3-methyl-2-oxo-2,3-dihydro-1H-benzo[d]imidazol-5-yl)methyl)piperazin-1-yl)-6-methoxy-9H-pyrimido[4,5-b]indol-4-yl)-3-fluoro-2-methylphenyl)ethyl)-1,2,4-oxadiazole-5-carboxamide], the DC50 at BTK worked out at 9.24 nM. Further, in the assay on HEK-293 cells (Homo sapiens), the IC50 was > 10000 nM.
